Tests used:
rMC-1 cells [1] = assay: Western blot, rMC-1; format: cell-based; conditions: rMC-1, hypoxia 48 hours, YC-1 25-100 μM
Description: Cells were placed in airtight chambers [BioSpherix, Redfield, N.Y.] and the O2 tension was maintained at 1.2% by using Pro-Ox Model 110 O2 regulator [BioSpherix, Redfield, N.Y.]. The chamber was purged with a gas mixture of 5.32% CO2, and 93.48% N2. […] Müller cells [rMC-1] and […] cells were seeded overnight in 6-well plates [10^5 cells/well]. Cells were treated with either YC-1 [25-100 μM] or DMSO [0.2% v/v] for 48 hours under normoxic or hypoxic environments. Reactions were terminated by addition of lysis buffer [Cell Signaling, Beverly, Mass.]. Protein content of the cell lysates was determined according to the Bradford method [Bio-Rad, Hercules, Calif.]. Aliquots [40 μg] of whole-cell lysates were separated on 7.5% SDS-PAGE, and electro-transferred onto polyvinylidene membranes [Amersham Pharmacia Biotech, Little Chalfont]. After blocking with 5% nonfat dry milk in TBS-T, the blots were incubated overnight with anti-iNOS [at 1:100] and anti-β-actin [internal control] antibodies. Then blots were washed 3×10 min washes in PBS/tween and subsequently incubated with peroxidase-conjugated anti-mouse IgG secondary antibody at 1:3000. The signals were obtained by enhanced chemiluminescence [Amersham Biosciences], and visualized by exposure to X-ray film. Upon completion of chemiluminescence, equal lane loading was checked by Ponceau S Solution [Sigma, St. Louis, Mo.]. X-ray films were scanned with a computer-assisted densitometer [model G-710; Bio-Rad] to quantify band optical density [Quantity One software; Bio-Rad].

rMC-1 cells [2] = assay: Real time RT-PCR analysis, in vitro, rMC-1; format: cell-based
Description: A transformed Müller cell line [rMC-1] were grown in cell cultures in DMEM supplemented with 15% FBS, as well as with a fungicide mixture and 0.5% gentamicin in a humidified atmosphere of 5% CO2/95% air. Medium was changed every 2-3 days, and cells were grown to confluence in a 150-mm dish. Cells were split into 60-mm dishes and were used in the experiments when confluent. […] cells are immortalized rat retinal neurosensory/neuoroglial progenitor cells, by transfection with Adenovirus 12S E1A into the neonatal retinal tissue. […] cells express genes characteristic of neurons, as well as functional neuronal properties. […] cells were cultured in DMEM/F12 medium in a 1:1 mixture, supplemented with 5% FBS, 1.5 mM L-glutamine, 7.5 mM sodium pyruvate, 0.1 mM nonessential amino acids, 1×MEM, 0.37% sodium bicarbonate and 10 μg/ml gentamicin. Cells were incubated at 37° C. in the presence of 5% CO2. Human retinal microvascular endothelial cells [[…]][40,000 cells/well] were seeded in a 96-well plate and allowed to adhere overnight and incubated at 37° C. in normoxia. Cells were then cultured in 150 μl of CS-C medium supplemented with 10% FBS and in the presence of 1-100 μM YC-1 or DMSO [0.2%]. Cells were placed in airtight chambers [BioSpherix, Redfield, N.Y.] and the O2 tension was maintained at 1.2% by using Pro-Ox Model 110 O2 regulator [BioSpherix, Redfield, N.Y.]. The chamber was purged with a gas mixture of 5.32% CO2, and 93.48% N2. […] We used the primers summarized in [FIG. 6C] for RT-PCR. Gene-specific molecular beacons and primers were designed to encompass the genes of interest, with beacon's annealing site to overlap with the exon-exon junctions for additional specificity [Beacon Designer 6.0, Premier Biosoft International, Palo Alto, Calif., USA]. Threshold cycle [Ct] values for the different samples were utilized for the calculation of gene expression fold change using the formula 2 to the minus power of delta delta ct. Fold changes in the HIF-1, VEGF, PDGF-B, GFAP and iNOS gene relative to the β-actin endogenous control gene were determined by the following equation: fold change=2-Δ[ΔC T], where change in threshold cycle [ΔCT]=CT [gene of interest]-CT [β-actin] and Δ [ΔCT]=ΔCT [treated]-ΔCT [untreated].

[3] = system: retinal vasculature in OIR mouse model; assay: Morphometric assessment of retinal vascular density (CD31 staining), OIR mouse model; format: in vivo, C57BL/6J mice; conditions: OIR mice, P17; DMSO 88, normoxic 154
Description: Retinal NV was induced in newborn mice as described previously. Briefly, P7 mice were exposed with their nursing mother, for 5 days [between P7 and P12] to hyperoxic conditions, by incubating them in an airtight chamber [PROOX 110 chamber O2 controller; Biospherix Ltd., Redfield, N.Y.] ventilated by a mixture of O2 and air to a final oxygen fraction of 75±2%. These incubation conditions induced vaso-obliteration and subsequent cessation of vascular development in the capillary beds of the central retina. At P12, the mice were allowed to recover in normal room air conditions and maintained for another 5 days [till P17], the day in which peak disease occurs. A condition of relative hypoxia resulted between P12 and P17, and extensive retinal NV developed in 100% of the mice. […]
Retinas were harvested at various time points and fixed with 4% paraformaldehyde (PFA) and methanol followed by blocking in 50% FBS/20% normal goat serum for 1 hour at room temperature. […] Quantitation of PECAM/CD-31 immunostaining was processed morphometrically using Metamorph™ imaging software [Universal Imaging, Sunnyvale, Calif.] to determine the area of positive staining for YC-1-treatedt vs. control group. […] All results were expressed as meant S.E.M. Differences were considered statistically significant at **P<0.01.

macrophages = macrophages stimulated by lipoteichoic acid in vitro, ref [31]; cited from earlier work
[4] = rMC-1, hypoxia 48 hours, YC-1 25-100 μM, vs DMSO-treated hypoxic cells

OCc1ccc(-c2nn(Cc3ccccc3)c3ccccc23)o1 [YC-1, 3-(5′-hydroxymethyl-2′-furyl)-1-benzylindazole]
HIF-1 protein level (Western blot) (rMC-1 cells [1]; vs DMSO-treated hypoxic cells): inhibited the hypoxia-induced upregulation | PDGF-B protein level (Western blot) (rMC-1 cells [1]; vs DMSO-treated hypoxic cells): inhibited the hypoxia-induced upregulation | VEGF protein level (Western blot) (rMC-1 cells [1]; vs DMSO-treated hypoxic cells): inhibited the hypoxia-induced upregulation | iNOS protein level (Western blot) (rMC-1 cells [1]; vs DMSO-treated hypoxic cells): inhibited the hypoxia-induced upregulation | GFAP protein level (Western blot) (rMC-1 cells [1]; vs non-treated hypoxic cells): inhibited the hypoxia-induced GFAP protein levels in a dose-dependent manner | PDGF-B mRNA level (rMC-1 cells [2]; [4]): significant dose-dependent attenuations | VEGF mRNA level (rMC-1 cells [2]; [4]): significant dose-dependent attenuations | iNOS mRNA level (rMC-1 cells [2]; [4]): significant dose-dependent attenuations | GFAP mRNA level (rMC-1 cells [2]; rMC-1, hypoxia, YC-1 25-100 μM, vs DMSO-treated hypoxic cells, normalized to β-actin): significant dose-dependent attenuations | HIF-1α message level (rMC-1 cells [2]; rMC-1, pre- vs post-YC-1 treatment): no differences | mean vascular density (endothelial cells per reticle square, CD31) [3]: 148±2 | expression of iNOS (macrophages): potent activity at abrogating the expression of iNOS
